# Test results: ChEMBL document CHEMBL1201862, “PubChem BioAssay data set” (2004)
# Activity calls are given as the source filed them.
# How the values were obtained:
# Large T antigen = Large T antigen (Simian virus 40, UniProt P03070); type: functional, Betapolyomavirus macacae;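 note: Confirmatory-stage PubChem screen for compounds that inhibit SV40 T antigen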
# [1] = molecular target: T1, RNA-binding protein pos-1 (Caenorhabditis elegans, UniProt G5EF15); assay: disruptors of C. elegans POS-1 RNA interaction – biochemical, fluorescence polarization, dose response (AID 1964);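 note: purified POS-1 fused to maltose binding protein made in E. coli; potency of compounds blocking POS-1 binding to fluorescent RNA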
# T1 sequence (G5EF15 whole entry): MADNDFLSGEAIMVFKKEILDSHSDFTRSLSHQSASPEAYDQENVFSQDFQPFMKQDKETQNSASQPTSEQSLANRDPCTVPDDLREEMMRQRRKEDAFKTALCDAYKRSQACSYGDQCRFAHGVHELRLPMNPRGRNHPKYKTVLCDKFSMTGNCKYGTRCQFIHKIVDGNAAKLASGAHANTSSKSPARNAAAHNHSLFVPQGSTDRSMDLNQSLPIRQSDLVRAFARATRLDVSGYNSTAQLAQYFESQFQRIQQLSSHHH
# [2] = molecular target: T2, Zinc finger protein mex-5 (Caenorhabditis elegans, UniProt Q9XUB2); assay: potency of MEX-5 RNA-binding blockers – biochemical, C. elegans, fluorescence polarization, dose response (AID 1960)
# T2 sequence (Q9XUB2 whole entry): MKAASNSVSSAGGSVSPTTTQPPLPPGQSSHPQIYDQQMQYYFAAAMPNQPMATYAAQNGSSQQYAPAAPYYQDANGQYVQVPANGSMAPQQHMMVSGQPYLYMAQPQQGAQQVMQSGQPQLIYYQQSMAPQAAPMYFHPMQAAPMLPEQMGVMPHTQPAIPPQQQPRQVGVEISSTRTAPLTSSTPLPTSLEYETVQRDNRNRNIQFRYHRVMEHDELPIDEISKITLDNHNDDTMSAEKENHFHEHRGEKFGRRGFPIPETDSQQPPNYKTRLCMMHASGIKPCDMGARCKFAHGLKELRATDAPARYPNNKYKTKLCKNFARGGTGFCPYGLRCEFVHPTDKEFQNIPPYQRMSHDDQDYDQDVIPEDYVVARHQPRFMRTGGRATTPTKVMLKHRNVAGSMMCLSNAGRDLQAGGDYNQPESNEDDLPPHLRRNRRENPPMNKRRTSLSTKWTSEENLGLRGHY
# Genome polyprotein = Genome polyprotein (dengue virus type 2, UniProt P29990); assay: flavivirus cap methylation enzyme inhibition – biochemical, confirmation dose response, primary screen (AID 588689); type: functional
# Coagulation factor XII = molecular target: T3, Coagulation factor XII (Homo sapiens, UniProt P00748); type: functional;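 note: activated factor XIIa alpha cleaving a fluorogenic AMC peptide substrate; inhibitor potency from loss of enzyme activity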
# T3 sequence (P00748 whole entry): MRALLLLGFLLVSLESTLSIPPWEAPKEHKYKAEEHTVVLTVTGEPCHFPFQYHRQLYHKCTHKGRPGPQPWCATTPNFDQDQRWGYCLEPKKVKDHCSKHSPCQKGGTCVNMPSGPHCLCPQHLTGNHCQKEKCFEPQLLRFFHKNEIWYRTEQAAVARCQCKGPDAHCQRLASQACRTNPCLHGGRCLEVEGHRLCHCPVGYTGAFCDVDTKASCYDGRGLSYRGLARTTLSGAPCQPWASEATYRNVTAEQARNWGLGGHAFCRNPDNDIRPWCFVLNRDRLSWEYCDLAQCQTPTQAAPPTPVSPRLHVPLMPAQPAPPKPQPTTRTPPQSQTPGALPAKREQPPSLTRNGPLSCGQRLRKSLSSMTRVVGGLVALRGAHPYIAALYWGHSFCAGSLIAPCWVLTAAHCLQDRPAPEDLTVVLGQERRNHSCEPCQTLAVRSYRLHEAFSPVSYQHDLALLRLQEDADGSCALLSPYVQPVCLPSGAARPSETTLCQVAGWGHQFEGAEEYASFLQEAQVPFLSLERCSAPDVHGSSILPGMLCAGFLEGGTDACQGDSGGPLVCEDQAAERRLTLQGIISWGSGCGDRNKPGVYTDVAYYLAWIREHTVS
# Cytochrome P450 2C19 = Cytochrome P450 2C19 (Homo sapiens, UniProt P33261); assay: Cytochrome panel assay with activity outcomes. Panel member name: p450-cyp2c19 Compounds with AC50 equal or less than 10 uM are considered active; type: functional; settings: read-out: AC50
# Cytochrome P450 3A4 = Cytochrome P450 3A4 (Homo sapiens, UniProt P08684);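 note: CYP3A4 tested as one member of a cytochrome P450 panel screen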
# Cytochrome P450 2C9 = Cytochrome P450 2C9 (Homo sapiens, UniProt P11712)
# [3] = viability of PTEN-deleted HCT116 cells – cell-based, HCT116 PTEN knockout, dose response (AID 1047); type: functional;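 note: HCT116 colon tumor cells with PTEN knocked out; cells exposed to compound for 60 hours before readout; potency for loss of cell viability measured by luminescence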
# [4] = viability of HCT116 lacking mutant beta-catenin – cell-based, human colon tumor, dose response (AID 1045); type: functional;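 note: HCT116 colon tumor cells with beta catenin knocked out; cells exposed to compound for 60 hours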
# [5] = viability of uninfected HEp-2 cells – cell-based, HTS, cytotoxicity control for RSV inhibitor project, dose response (AID 2410); type: functional; settings: human respiratory syncytial virus
# [6] = molecular target: FAD-linked sulfhydryl oxidase ALR (Homo sapiens, UniProt P55789); assay: ALR-catalysed DTT oxidation blockers – biochemical, H2O2 detection, luminescence, cherry-pick, dose response (AID 493248)
# Cytochrome P450 1A2 = molecular target: T4, Cytochrome P450 1A2 (Homo sapiens, UniProt P05177);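 note: PubChem cytochrome P450 panel assay, CYP1A2 panel member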
# T4 sequence (P05177 whole entry): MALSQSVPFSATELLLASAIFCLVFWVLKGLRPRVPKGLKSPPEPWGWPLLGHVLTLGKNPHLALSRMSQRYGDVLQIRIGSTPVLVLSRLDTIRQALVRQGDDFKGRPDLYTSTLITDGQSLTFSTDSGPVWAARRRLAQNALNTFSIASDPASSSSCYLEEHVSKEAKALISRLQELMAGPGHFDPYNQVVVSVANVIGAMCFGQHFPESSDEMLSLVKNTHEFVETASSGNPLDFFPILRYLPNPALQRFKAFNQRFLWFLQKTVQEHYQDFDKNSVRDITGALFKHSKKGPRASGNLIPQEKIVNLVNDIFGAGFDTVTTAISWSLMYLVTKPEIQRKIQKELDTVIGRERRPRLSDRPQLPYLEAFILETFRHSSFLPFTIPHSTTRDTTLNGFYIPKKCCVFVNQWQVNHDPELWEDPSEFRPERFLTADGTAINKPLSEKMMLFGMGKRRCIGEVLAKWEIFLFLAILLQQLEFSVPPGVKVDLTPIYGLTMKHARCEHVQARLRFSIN
# [7] = molecular target: Luciferin 4-monooxygenase (Photinus pyralis, UniProt P08659); assay: inhibition of purified Photinus pyralis luciferase – biochemical, luminescence, dose response (AID 1891)
# [8] = Luminescence Cell-Based Dose Confirmation HTS to Identify Inhibitors of Platelet Dense Granule Release. [Related pubchem assays: 1663 (Primary HTS), 1678 (Summary of Project)]; type: functional
# [9] = tested on: Streptococcus sp. 'group A'; assay: Streptococcus pyogenes SK(-)GAS viability under kanamycin – luminescence, BacTiterGlo, confirmation, counter-screen for streptokinase expression inhibitor project, dose response (AID 1900); type: functional, organism-based
# Streptokinase A = molecular target: T5, Streptokinase A (Streptococcus pyogenes serotype M1, UniProt P10520); assay: viability-normalized secreted streptokinase activity reduction – plasminogen activation absorbance, OD405, dose response (AID 1914); type: functional, Streptococcus pyogenes M1 GAS;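 note: secreted streptokinase activity via plasminogen activation per viability signal from cell pellet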
# T5 sequence (P10520 whole entry): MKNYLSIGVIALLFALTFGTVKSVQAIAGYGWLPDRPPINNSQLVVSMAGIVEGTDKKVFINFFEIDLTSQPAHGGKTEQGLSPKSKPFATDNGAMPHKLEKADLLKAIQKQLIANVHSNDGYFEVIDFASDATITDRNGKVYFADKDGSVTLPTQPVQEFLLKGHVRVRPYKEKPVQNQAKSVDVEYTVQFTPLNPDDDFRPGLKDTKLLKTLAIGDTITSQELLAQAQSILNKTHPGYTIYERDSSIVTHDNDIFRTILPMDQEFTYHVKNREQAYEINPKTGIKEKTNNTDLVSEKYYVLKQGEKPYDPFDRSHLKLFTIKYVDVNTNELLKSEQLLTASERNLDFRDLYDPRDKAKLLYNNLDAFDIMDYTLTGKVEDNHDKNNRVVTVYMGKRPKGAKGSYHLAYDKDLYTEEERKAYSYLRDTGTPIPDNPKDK
# Streptococcus = assay: GAS UMAA2166 growth inhibition – luminescence, BacTiterGlo, counter-screen for streptokinase expression inhibitor project, dose response (AID 1915); type: functional, organism-based;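 note: potency for reduction of bacterial viability or growth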
# [10] = reduction of Shn3 3'UTR-driven luciferase in osteoblasts – cell-based, Clone20 osteoblasts, firefly luciferase, cherry-picked, dose response (AID 624132); type: functional;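 note: firefly luciferase luminescence from reporter carrying the Shn3 3'UTR in osteoblasts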
# [11] = non-specific 3'UTR reporter inhibition in Clone20-Shn3RL – cell-based, Renilla luciferase, cherry-picked, counter-screen for Shn3 inhibitor project, dose response (AID 624133); type: functional
# [12] = molecular target: T6, Rac GTPase-activating protein 1 (Homo sapiens, UniProt Q9H0H5); assay: blockers of MgcRacGAP-driven Rac1 GTP hydrolysis – biochemical, ADP Hunter fluorescence, primary and confirmatory, confirmation (AID 624330); type: functional
# T6 sequence (Q9H0H5 whole entry): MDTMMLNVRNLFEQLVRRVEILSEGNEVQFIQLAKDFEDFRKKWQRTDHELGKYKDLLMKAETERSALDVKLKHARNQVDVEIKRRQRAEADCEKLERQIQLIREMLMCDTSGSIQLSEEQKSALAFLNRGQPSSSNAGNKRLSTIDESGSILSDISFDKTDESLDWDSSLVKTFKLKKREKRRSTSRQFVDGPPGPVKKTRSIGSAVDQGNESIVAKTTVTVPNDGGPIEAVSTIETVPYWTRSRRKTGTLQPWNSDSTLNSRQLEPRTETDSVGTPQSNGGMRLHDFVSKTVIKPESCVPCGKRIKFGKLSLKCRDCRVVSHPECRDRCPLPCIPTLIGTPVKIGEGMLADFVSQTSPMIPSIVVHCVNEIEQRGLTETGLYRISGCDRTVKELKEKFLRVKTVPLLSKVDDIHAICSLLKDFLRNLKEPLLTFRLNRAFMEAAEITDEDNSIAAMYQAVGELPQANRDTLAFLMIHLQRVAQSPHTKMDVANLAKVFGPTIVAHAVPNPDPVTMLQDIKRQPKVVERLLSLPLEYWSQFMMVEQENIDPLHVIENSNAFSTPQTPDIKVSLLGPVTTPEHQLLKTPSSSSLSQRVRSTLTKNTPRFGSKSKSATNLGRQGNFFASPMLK
# Chain of Genome polyprotein (P29990 2492-3391 limits assumed): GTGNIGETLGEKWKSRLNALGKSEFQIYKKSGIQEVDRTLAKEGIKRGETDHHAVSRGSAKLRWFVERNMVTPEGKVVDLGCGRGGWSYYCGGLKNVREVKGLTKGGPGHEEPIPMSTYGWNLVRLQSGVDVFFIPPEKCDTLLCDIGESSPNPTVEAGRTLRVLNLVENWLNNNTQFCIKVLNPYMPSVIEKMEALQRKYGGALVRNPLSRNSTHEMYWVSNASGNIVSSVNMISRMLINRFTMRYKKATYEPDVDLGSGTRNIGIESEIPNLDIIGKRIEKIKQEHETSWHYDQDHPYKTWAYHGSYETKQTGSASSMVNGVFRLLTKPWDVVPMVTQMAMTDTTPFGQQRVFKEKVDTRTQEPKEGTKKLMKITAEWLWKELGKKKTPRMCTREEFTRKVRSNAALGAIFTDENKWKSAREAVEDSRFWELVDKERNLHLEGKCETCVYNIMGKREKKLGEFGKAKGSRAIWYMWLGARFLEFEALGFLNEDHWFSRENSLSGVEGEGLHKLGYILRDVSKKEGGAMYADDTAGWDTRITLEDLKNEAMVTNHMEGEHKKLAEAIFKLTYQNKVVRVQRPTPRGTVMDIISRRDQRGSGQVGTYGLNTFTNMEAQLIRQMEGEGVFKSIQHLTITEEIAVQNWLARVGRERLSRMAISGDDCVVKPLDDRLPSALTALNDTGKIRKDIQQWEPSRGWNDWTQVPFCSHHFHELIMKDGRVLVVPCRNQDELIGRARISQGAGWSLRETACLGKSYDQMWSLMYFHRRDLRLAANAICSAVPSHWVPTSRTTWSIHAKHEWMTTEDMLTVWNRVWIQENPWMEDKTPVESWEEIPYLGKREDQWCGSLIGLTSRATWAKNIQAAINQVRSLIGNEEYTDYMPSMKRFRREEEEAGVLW
# Chain of Large T antigen (P03070 whole entry, the tested form may be a part): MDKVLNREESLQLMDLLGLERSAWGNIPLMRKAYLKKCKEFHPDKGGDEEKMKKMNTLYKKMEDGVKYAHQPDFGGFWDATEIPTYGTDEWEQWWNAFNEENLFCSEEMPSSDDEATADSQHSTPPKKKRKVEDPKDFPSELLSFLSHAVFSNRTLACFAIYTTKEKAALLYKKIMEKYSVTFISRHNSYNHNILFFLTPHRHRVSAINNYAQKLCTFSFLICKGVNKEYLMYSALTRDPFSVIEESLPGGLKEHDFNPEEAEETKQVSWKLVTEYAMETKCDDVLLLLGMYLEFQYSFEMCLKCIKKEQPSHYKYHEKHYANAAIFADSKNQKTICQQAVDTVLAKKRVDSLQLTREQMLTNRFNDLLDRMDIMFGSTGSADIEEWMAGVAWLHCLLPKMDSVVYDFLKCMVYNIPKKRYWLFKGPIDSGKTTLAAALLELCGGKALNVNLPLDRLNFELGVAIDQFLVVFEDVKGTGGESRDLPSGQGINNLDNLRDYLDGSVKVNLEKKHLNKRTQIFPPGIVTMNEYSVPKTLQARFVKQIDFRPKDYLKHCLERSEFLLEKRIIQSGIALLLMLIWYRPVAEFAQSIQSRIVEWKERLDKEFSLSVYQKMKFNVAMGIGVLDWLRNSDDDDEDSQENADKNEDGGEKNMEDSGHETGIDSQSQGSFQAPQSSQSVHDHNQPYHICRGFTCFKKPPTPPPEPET
# Chain of Cytochrome P450 3A4 (P08684 whole entry): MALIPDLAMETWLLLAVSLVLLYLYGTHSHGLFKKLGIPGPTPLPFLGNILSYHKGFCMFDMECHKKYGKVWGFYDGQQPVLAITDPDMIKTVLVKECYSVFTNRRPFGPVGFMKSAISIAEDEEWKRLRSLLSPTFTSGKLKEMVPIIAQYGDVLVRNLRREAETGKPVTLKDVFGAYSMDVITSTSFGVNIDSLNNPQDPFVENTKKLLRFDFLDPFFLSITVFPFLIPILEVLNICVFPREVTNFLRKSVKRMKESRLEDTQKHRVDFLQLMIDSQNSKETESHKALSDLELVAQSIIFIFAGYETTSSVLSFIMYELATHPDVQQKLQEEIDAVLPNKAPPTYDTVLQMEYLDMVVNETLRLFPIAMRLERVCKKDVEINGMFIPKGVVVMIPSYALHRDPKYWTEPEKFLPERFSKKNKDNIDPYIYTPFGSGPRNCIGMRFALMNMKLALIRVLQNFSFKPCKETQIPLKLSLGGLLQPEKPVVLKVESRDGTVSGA
# Chain of Cytochrome P450 2C9 (P11712 whole entry): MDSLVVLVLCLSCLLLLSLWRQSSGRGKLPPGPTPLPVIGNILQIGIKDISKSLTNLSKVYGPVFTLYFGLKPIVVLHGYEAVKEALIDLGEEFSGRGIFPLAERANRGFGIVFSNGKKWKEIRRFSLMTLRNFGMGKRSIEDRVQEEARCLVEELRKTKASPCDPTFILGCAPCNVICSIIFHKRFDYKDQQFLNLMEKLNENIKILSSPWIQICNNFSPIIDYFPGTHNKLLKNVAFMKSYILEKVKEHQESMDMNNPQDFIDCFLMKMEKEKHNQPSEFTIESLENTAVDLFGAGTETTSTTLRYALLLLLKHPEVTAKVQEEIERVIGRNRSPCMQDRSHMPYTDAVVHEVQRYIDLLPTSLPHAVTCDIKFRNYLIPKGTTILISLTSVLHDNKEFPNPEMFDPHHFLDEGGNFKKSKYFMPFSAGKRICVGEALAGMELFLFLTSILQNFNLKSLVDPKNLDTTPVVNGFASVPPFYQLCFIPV
# Chain of FAD-linked sulfhydryl oxidase ALR (P55789 whole entry): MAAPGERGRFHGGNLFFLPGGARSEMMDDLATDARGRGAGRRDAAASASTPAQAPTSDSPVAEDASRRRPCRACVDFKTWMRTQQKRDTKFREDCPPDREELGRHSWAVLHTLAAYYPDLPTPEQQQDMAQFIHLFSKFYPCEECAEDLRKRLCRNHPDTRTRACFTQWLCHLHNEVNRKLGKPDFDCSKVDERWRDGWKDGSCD
# Chain of Luciferin 4-monooxygenase (P08659 whole entry): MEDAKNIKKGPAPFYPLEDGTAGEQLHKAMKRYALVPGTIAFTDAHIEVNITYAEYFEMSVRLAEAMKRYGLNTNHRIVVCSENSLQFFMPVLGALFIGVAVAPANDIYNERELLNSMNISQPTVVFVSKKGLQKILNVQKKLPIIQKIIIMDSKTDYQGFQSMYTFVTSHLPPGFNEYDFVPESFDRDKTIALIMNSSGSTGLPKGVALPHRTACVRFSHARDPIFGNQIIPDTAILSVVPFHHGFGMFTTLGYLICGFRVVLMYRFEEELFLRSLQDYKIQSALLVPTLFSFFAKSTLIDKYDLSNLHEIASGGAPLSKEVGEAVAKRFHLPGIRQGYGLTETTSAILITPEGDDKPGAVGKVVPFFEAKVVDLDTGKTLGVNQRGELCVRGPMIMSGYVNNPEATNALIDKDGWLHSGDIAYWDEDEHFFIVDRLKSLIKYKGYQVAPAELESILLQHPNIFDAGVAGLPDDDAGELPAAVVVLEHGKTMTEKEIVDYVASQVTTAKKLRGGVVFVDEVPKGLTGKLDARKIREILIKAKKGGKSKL
# Chain of Cytochrome P450 2C19 (P33261 whole entry): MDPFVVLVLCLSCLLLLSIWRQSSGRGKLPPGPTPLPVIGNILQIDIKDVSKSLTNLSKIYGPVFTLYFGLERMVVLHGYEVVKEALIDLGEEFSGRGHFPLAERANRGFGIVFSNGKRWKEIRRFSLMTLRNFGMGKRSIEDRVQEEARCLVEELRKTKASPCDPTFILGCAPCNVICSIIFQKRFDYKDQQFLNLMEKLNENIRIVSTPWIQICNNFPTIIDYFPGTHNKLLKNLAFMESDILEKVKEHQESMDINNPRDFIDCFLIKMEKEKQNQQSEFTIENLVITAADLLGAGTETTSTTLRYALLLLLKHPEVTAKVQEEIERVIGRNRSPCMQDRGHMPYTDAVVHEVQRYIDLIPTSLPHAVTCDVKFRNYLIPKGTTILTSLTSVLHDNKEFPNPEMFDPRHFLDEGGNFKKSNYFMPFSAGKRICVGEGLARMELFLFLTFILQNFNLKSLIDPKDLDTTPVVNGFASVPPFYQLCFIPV
compound,measurement,setting,value
O=C1NC(=S)N(c2ccccc2F)C(=O)/C1=C/Nc1ccc(N2CCOCC2)cc1,IC50,Large T antigen,4.54 µM (active)
COc1ccccc1N1CC(C(=O)Nc2nnc(SCC(=O)NC(C)C)s2)CC1=O (configuration not stated),EC50,[1],> 300 µM (not active)
same,EC50,[2],> 300 µM (not active)
Cc1ccc2cc(C=C3C(=O)NC(=O)NC3=O)c(O)nc2c1,IC50,Large T antigen,> 100 µM (active)
same,IC50,Genome polyprotein,79 µM (active)
COC(=O)CC1C(=O)NCCN1C(=S)Nc1cccc(C)c1 (configuration not stated),IC50,Coagulation factor XII,> 50 µM (inactive)
O=C(c1ccc2ncsc2c1)N1CCN(c2ccc(O)cc2)CC1,IC50,Large T antigen,14.4 µM (active)
same,AC50,Cytochrome P450 2C19,20 µM (inconclusive)
same,AC50,Cytochrome P450 3A4,3.55 µM (inconclusive)
same,AC50,Cytochrome P450 2C9,1.78 µM (inconclusive)
CC(C)c1cccc(-c2ccc3c(c2)S(=O)(=O)c2cccc(C(=O)O)c2C3=O)c1,IC50,Genome polyprotein,66.2 µM (active)
O=C(CN=C(S)N(Cc1ccccc1)Cc1ccccc1F)NCCc1ccccc1,IC50,Coagulation factor XII,> 50 µM (inactive)
CCNc1ccc(N=Nc2c(C)n(C)n(-c3ccccc3)c2=O)cc1,IC50,Large T antigen,7.88 µM (active)
Nc1nc(-c2cccs2)c(NC(=O)c2ccccc2)s1,IC50,Large T antigen,23.2 µM (active)
same,EC50,[3],27.4 µM (active)
same,EC50,[4],23.8 µM (active)
Cc1ccc2nc(NC(=O)C3CCCN(S(=O)(=O)c4cccc5nsnc45)C3)sc2c1 (configuration not stated),CC50,[5],29.4 µM (active)
same,IC50,Coagulation factor XII,> 50 µM (inactive)
O=C(NNc1cc(Br)c(O)c(Br)c1)c1ccccc1,AC50,[6],0.192 µM (active)
same,IC50,Genome polyprotein,63.2 µM (active)
COCCNC(=O)CC(NS(=O)(=O)c1ccc(C)cc1)c1ccco1 (configuration not stated),IC50,Coagulation factor XII,> 50 µM (inactive)
CC(=O)Nc1ccc(NC(=O)CSc2ncnn2-c2ccccc2)cc1,IC50,Coagulation factor XII,> 50 µM (inactive)
same,AC50,Cytochrome P450 1A2,28.2 µM (inconclusive)
same,AC50,Cytochrome P450 3A4,28.2 µM (inconclusive)
same,AC50,Cytochrome P450 2C9,12.6 µM (inconclusive)
COc1cccc(N2C(=O)/C(=C/c3ccc(C)o3)C(=O)NC2=S)c1,EC50,[1],> 300 µM (not active)
same,EC50,[2],44.5 µM (active)
Cc1sc(NC(=O)c2ccco2)c(CN2CCN(c3ccc(F)cc3)CC2)c1C,IC50,Coagulation factor XII,> 50 µM (inactive)
CN1C(=O)C(=Cc2c[nH]c3ccc(Br)cc23)C(=O)N(C)C1=O,EC50,[1],> 300 µM (not active)
same,EC50,[2],> 300 µM (not active)
Cc1c(C(=O)N2CCOCC2)sc2ncnc(N3CCc4ccccc4C3)c12,EC50,[7],> 112 µM (not active)
same,EC50,[8],> 112 µM (not active)
same,IC50,Coagulation factor XII,> 50 µM (inactive)
CCOC(=O)C1=C(Nc2ccccc2)S/C(=C\c2cn(CC(=O)N3CCCC3)c3ccccc23)C1=O,EC50,[1],47.5 µM (active)
same,EC50,[2],26.2 µM (active)
CC1CCOC2(O1)C(=O)Nc1ccccc12 (configuration not stated),IC50,Coagulation factor XII,> 50 µM (inactive)
O=C(N/N=C/c1cc(Cl)cc([N+](=O)[O-])c1O)C(O)(c1ccccc1)c1ccccc1,EC50,[1],> 300 µM (not active)
same,EC50,[9],3.8 µM (active)
same,EC50,[2],40.2 µM (active)
same,EC50,Streptokinase A,> 150 µM (not active)
same,EC50,Streptococcus,7.21 µM (active)
O=C1NCCOC(=O)[C@@H](Cc2ccc(F)cc2)CC/C=C/C[C@@H]1CC(=O)N(CCO)Cc1ccccc1,AC50,[10],> 70 µM (inactive)
same,AC50,[11],29.6 µM (active)
O=C(N/N=C/c1ccc(O)c(O)c1)c1cccc(S(=O)(=O)N2CCCCC2)c1,IC50,Large T antigen,4.75 µM (active)
same,IC50,[12],85.3 µM (active)
C/N=c1\scc(C)n1/N=C/c1ccc(O)cc1,IC50,Large T antigen,8.35 µM (active)
same,IC50,[12],20.9 µM (active)
